The values below are quoted from earlier work in patent US20110014255A1, “PHYTOSANITARY FORMULATION GENERATING NANOPARTICLES, METHOD FOR PREPARING NANOPARTICLES AND USE THEREOF” (priority 2006, published 2011).

Where “and” joins values, the source holds several entries; their conditions need not be identical. Equal entries are not always repeated. Structures can show the parent of a compound that is named as a salt.

For the first series the following is noted: % by weight.
As for `CCCCOC(=O)[C@H](C)O` [(S)-n-butyl lactate], the miscibility in water is 4.5%.

For `CCCCCC(C)O` (centres unmarked) [Example 2-heptanol, 2-heptanol], the miscibility in water is on record as 0.35%. With `CC(=O)OCc1ccccc1` [benzyl acetate], the miscibility in water is on record as 0.001%. On to `CCCCOCCOCCO` [diethylene glycol n-butyl ether], for which the miscibility in water is listed as 6.5%.

On to `CC(=O)CC(C)C` [methyl isobutyl ketone], for which the miscibility in water is given as 1.7%. As to `COc1ccccc1` [anisole], the miscibility in water was 1.04%.

For the compound `OCc1ccccc1` [benzyl alcohol], the miscibility in water is listed as 0.08%.

Consider `CCCCC(CC)COP(=O)(OCC(CC)CCCC)OCC(CC)CCCC` (centres unmarked) [tris(2-ethylhexyl)phosphate], for which the miscibility in water was 0.1%. Consider `COC(=O)CCCCC(=O)OC` [dimethyl adipate], for which the miscibility in water is listed as 2.5%. As for `COC(=O)c1ccccc1O` [methyl salicylate], the miscibility in water is 0.074% and 0.07%. Take `CCCOC(C)=O` [propyl acetate]: the miscibility in water was 2.3%.

As for `O=C1CCCCC1` [cyclohexanone], the miscibility in water is 2.4% and 2.3%.

Regarding `CC(=O)c1ccccc1` [acetophenone], the miscibility in water is listed as 0.55%. `CC(=O)OCC(C)C` [isobutyl acetate]: the miscibility in water is 0.67%.

For the compound `CC(=O)OCCC(C)C` [isoamyl acetate], the miscibility in water was 2%. As for `CCCCCCCCCCO` [decanol], the miscibility in water is 0.02%. As to `C=CC#N` [acrylonitrile], the miscibility in water is 7.35%. As for `ClCCl` [dichloro-methane], the miscibility in water is 1.3%. For `O=C(OCc1ccccc1)c1ccccc1O` [benzyl salicylate], the miscibility in water is 0.005%. For the compound `CCCC(O)C(CC)CO` (centres unmarked) [2-ethyl-1,3-hexanediol], the miscibility in water is listed as 0.6%. On to `CCCCOCCOP(=O)(OCCOCCCC)OCCOCCCC` [tributoxyethyl phosphate], for which the miscibility in water is recorded as 0.11%. For the compound `CCCC=O` [butyraldehyde], the miscibility in water is 7.1%.

As for `COC(=O)C(=O)OC` [dimethyl oxalate], the miscibility in water is listed as 5%.

Turning to `ClCC1CO1` (centres unmarked) [epichlorohydrin], the miscibility in water is listed as 6.58%. Turning to `CCC(CC)CO` [2-ethylbutanol], the miscibility in water is given as 0.63%. On to `CCCCC(CC)CO` (centres unmarked) [2-ethylhexanol], for which the miscibility in water is listed as 0.07%. Turning to `CCCCCCCCN1CCCC1=O` [N-octylpyrrolidone], the miscibility in water is reported as 0.1%. On to `CCOC(=O)c1ccccc1C(=O)OCC` [diethyl phthalate], for which the miscibility in water is recorded as 0.1%. As for `CCCC#N` [butyronitrile], the miscibility in water is on record as 3.3%. Regarding `CC(=O)OC(C)C` [isopropyl acetate], the miscibility in water is listed as 2.9%.

Regarding `O=Cc1ccco1` [furfuraldehyde], the miscibility in water is listed as 8.3%. `CCCCCCCC(=O)N(C)C` [N,N-dimethyloctanamide]: the miscibility in water is reported as 0.43%. For `N#Cc1ccccc1` [benzonitrile], the miscibility in water is recorded as 0.2%. Regarding `COCOC` [dimethoxymethane], the miscibility in water is reported as 2.4%.

With `c1ccc(Oc2ccccc2)cc1` [diphenyl ether], the miscibility in water is recorded as 0.002%. Consider `CC(Cl)Cl` [1,1-dichloroethane], for which the miscibility in water was 5.03%. For the compound `CCOC(C)=O` [ethyl acetate], the miscibility in water is recorded as 8%. Turning to `CCCCCOC(C)=O` [N-pentyl acetate], the miscibility in water is reported as 1%. For the compound `CC1=CC(=O)CC(C)(C)C1` [isophorone], the miscibility in water was 1.2%. For the compound `COC(=O)c1ccccc1C(=O)OC` [dimethyl phthalate], the miscibility in water was 1.84%.

For the compound `CC(C)COC(=O)C(C)C` [isobutyl isobutyrate], the miscibility in water is listed as 0.5%. `c1ccc2ncccc2c1` [quinoline]: the miscibility in water is listed as 0.61%. `CCCCOC(C)=O` [butyl acetate]: the miscibility in water is reported as 2.9%.

Staying with this series, now noted: % by weight; listed as octyl pyrrolidone.
As for `CCCCCCCCN1CCCC1=O` [N-octylpyrrolidone], the miscibility in water entry is given as “not more than 0.1%”.
